Test results as given in ChEMBL document CHEMBL1152560, “Substituted 2-arylbenzothiazoles as kinase inhibitors: hit-to-lead optimization” (Bioorg Med Chem, 2009).

How the values were obtained:
[1] = molecular target: Casein kinase I isoform gamma-2 (Homo sapiens) (UniProt P78368); experiment: Residual activity of CK1gamma2 at 10 uM by microplate scintillation counting
[2] = molecular target: Serine/threonine-protein kinase PAK 2 (Homo sapiens) (UniProt Q13177); experiment: Residual activity of PAK2 at 0.1 uM by microplate scintillation counting
[3] = molecular target: T1, Dual specificity protein kinase TTK (Homo sapiens) (UniProt P33981); experiment: Residual activity of TTK at 10 uM by microplate scintillation counting
T1 sequence (whole entry): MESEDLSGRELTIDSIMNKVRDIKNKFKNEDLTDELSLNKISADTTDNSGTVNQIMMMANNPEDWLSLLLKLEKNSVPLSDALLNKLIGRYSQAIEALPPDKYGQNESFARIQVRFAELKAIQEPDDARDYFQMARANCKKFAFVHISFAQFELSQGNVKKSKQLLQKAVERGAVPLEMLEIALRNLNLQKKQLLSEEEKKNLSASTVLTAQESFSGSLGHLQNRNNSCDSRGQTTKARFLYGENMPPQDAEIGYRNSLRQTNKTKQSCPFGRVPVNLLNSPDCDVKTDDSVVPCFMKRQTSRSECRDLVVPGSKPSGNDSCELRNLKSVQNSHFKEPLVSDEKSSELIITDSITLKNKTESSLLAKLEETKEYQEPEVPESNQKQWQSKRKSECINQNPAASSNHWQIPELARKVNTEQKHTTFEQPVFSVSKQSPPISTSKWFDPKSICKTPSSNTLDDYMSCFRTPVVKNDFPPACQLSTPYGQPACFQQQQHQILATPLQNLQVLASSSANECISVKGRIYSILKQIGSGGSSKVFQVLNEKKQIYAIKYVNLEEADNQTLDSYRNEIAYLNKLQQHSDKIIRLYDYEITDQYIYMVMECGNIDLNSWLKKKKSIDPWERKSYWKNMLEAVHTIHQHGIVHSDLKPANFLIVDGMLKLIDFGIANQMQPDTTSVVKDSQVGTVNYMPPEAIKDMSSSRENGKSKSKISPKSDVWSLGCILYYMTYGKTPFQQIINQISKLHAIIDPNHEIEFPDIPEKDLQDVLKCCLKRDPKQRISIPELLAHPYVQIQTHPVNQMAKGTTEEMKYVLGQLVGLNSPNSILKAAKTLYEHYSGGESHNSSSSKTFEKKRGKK

[4] = molecular target: Maternal embryonic leucine zipper kinase (Homo sapiens) (UniProt Q14680); experiment: Residual activity of MELK at 0.1 uM by microplate scintillation counting
[5] = molecular target: T2, Beta-adrenergic receptor kinase 1 (Homo sapiens) (UniProt P25098); experiment: Residual activity of GRK2 at 10 uM by microplate scintillation counting
T2 sequence (whole entry): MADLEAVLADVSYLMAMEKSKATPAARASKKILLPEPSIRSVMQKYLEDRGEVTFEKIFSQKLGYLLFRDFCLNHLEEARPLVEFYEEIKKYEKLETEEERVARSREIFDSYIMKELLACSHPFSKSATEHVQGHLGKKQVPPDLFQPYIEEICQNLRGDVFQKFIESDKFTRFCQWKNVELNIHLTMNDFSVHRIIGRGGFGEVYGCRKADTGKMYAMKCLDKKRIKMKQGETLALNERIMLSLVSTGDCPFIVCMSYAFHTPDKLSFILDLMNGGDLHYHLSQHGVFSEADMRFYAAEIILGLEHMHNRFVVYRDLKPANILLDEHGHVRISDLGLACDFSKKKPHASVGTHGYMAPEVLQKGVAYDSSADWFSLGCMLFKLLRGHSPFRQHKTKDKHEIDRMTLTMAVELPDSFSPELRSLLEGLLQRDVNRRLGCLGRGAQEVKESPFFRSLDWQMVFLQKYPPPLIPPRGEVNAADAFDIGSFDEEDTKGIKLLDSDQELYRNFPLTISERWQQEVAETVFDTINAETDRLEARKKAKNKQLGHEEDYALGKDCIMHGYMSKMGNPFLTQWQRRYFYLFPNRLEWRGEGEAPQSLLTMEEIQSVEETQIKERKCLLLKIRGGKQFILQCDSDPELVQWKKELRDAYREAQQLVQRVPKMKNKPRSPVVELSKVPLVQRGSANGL

[6] = molecular target: Casein kinase I isoform gamma-3 (Homo sapiens) (UniProt Q9Y6M4); experiment: Residual activity of CK1gamma3 at 0.1 uM by microplate scintillation counting
[7] = molecular target: Serine/threonine-protein kinase pim-1 (Homo sapiens) (UniProt P11309); experiment: Residual activity of PIM1 at 1 uM by microplate scintillation counting
[8] = molecular target: T3, Aurora kinase C (Homo sapiens) (UniProt Q9UQB9); experiment: Residual activity of Aurora-C at 1 uM by microplate scintillation counting
T3 sequence (whole entry): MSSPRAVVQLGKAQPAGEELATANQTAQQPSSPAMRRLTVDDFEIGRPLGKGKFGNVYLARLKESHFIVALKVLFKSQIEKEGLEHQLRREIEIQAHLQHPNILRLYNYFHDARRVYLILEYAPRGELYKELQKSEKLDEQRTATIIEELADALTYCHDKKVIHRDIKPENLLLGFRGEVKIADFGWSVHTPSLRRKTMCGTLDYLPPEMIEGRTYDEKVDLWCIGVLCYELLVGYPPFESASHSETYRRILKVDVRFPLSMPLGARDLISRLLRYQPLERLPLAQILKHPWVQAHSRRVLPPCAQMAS

[9] = molecular target: Casein kinase II subunit alpha' (Homo sapiens) (UniProt P19784); experiment: Residual activity of CK2alpha2 at 0.1 uM by microplate scintillation counting
[10] = molecular target: T4, Tyrosine-protein kinase ZAP-70 (Homo sapiens) (UniProt P43403); experiment: Residual activity of ZAP70 at 0.1 uM by microplate scintillation counting
T4 sequence (whole entry): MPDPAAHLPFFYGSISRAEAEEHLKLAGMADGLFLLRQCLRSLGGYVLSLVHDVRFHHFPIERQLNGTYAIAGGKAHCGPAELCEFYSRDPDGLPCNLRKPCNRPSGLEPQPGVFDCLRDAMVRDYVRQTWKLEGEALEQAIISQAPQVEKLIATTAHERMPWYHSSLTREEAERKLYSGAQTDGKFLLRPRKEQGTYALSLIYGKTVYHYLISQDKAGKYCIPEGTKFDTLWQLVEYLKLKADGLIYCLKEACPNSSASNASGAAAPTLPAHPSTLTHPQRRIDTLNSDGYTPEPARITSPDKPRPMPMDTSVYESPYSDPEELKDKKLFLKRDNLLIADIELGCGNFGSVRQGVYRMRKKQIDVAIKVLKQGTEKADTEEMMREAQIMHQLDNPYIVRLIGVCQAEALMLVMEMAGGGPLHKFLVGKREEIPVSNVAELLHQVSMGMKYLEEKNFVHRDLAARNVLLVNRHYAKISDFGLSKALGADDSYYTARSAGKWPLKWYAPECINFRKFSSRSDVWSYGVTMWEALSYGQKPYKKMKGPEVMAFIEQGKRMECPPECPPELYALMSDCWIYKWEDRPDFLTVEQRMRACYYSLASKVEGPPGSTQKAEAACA

Serine/threonine-protein kinase pim-1 (Homo sapiens), sequence (P11309 whole entry, looked up): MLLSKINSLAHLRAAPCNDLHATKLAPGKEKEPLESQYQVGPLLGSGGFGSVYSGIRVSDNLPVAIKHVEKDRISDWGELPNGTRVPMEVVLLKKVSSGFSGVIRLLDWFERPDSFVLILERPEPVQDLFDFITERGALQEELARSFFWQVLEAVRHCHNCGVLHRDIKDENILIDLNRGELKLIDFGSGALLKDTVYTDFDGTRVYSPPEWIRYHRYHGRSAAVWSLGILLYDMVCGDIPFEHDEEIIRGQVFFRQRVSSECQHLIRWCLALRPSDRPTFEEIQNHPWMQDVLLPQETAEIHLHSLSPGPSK
Casein kinase I isoform gamma-2 (Homo sapiens), sequence (P78368 whole entry, looked up, canonical isoform): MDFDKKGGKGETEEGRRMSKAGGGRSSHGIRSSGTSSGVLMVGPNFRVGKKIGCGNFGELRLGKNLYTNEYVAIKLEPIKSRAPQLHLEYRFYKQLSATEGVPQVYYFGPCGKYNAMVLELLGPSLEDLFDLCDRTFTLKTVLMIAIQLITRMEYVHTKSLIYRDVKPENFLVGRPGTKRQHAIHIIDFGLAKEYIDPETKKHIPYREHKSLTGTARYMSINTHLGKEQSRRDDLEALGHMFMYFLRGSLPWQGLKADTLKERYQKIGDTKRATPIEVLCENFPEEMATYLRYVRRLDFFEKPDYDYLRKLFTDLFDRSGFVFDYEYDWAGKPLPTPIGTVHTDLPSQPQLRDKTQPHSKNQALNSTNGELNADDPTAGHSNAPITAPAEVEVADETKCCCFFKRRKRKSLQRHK
Casein kinase II subunit alpha' (Homo sapiens), sequence (P19784 whole entry, looked up): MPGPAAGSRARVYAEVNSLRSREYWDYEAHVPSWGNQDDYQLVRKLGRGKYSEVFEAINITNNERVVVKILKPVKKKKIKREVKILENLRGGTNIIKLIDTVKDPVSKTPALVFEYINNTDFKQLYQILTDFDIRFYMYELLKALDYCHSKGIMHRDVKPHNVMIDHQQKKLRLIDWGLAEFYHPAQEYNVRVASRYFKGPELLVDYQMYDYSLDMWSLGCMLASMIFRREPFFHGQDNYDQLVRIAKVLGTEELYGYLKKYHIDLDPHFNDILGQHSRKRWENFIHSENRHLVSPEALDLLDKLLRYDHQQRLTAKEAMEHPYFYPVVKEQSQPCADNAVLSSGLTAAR
Serine/threonine-protein kinase PAK 2 (Homo sapiens), sequence (Q13177 whole entry): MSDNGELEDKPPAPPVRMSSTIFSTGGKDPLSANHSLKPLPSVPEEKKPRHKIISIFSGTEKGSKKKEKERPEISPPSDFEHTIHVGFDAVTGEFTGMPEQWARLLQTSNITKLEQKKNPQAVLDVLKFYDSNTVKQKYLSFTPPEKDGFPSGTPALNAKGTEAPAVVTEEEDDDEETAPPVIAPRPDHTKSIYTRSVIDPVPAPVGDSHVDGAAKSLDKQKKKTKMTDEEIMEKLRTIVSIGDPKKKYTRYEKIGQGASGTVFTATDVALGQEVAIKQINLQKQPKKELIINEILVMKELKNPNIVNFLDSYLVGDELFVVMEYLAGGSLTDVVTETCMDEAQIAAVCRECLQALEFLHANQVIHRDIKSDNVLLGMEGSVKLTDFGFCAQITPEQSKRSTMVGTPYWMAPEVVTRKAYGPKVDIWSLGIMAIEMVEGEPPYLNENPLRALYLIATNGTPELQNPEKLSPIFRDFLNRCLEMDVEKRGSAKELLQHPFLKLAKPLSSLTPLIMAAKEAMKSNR
Maternal embryonic leucine zipper kinase (Homo sapiens), sequence (Q14680 whole entry, looked up): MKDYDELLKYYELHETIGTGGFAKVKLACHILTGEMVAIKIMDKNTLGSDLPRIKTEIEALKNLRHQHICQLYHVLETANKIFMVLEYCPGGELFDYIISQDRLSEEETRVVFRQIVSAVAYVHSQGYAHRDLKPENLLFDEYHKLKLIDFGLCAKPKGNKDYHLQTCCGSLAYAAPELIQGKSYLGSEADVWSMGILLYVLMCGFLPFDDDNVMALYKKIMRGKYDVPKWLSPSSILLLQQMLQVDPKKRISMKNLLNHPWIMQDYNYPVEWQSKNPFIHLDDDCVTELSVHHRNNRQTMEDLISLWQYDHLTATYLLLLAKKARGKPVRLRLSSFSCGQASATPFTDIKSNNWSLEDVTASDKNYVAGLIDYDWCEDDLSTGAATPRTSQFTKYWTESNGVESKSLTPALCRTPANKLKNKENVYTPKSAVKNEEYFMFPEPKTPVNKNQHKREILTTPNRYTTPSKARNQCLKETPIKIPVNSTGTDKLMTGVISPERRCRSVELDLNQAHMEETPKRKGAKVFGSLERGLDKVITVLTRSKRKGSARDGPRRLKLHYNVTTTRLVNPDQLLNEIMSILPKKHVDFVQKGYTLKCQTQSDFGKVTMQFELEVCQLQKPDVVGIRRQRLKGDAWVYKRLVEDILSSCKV
Casein kinase I isoform gamma-3 (Homo sapiens), sequence (Q9Y6M4 whole entry, looked up, canonical isoform): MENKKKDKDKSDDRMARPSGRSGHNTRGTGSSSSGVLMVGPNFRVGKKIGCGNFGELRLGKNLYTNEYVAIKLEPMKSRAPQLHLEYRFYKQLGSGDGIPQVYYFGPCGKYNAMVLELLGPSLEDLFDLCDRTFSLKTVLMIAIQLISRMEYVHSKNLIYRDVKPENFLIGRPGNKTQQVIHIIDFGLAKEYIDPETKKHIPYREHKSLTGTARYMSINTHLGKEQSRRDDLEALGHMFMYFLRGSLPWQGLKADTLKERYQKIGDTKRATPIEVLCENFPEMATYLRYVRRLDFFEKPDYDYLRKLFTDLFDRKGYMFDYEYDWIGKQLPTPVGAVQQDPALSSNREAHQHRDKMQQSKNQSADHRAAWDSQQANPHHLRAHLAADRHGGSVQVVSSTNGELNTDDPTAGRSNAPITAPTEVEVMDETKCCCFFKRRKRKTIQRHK

Row | residual activity [1] | residual activity [2] | residual activity [3] | residual activity [4] | residual activity [5] | residual activity [6] | residual activity [7] | residual activity [8] | residual activity [9] | residual activity [10] | Compound
1 | 198% | 93% | 84% | 34% | 73% | 94% | 104% | 7% | 91% | 111% | COc1cc2c(Oc3ccc(-c4nc5ccccc5s4)cc3)ncnc2cc1OCCCN1CCCC1
2 | 217% | 111% | 69% | 111% | 58% | 76% | 109% | 11% | 98% | 112% | COc1cc2c(Oc3ccc(-c4nc5ccccc5s4)cc3)ncnc2cc1OCCCN1CCN(C)CC1
3 | 226% | 97% | 70% | 60% | 53% | 90% | 102% | 10% | 88% | 108% | COc1cc2c(Oc3ccc(-c4nc5ccccc5s4)cc3F)ncnc2cc1OCCCN1CCN(C)CC1
